# Measured values reported in patent publication US10981917B2, “Heterocyclic compound, its preparation method, and pharmaceutical composition comprising the same” (Daewoong Pharmaceutical Co., Ltd., priority 2017, dated 2021).
# Biological target: PRS (prolyl-tRNA synthetase) protein, PRS portion of EPRS (Homo sapiens (Human), UniProt P07814)
# Assay: PRS enzyme activity inhibition experiment ([3H]proline, liquid scintillation)
# Assay type: biochemical
# Conditions: purified PRS protein, 37° C. for 5 to 10 minutes
# Description: In order to confirm the biological activities of the compounds prepared in Examples, % inhibition or IC50 values of PRS enzyme ([…]) activities were calculated.
# Specifically, the portion corresponding to PRS in cDNA of EPRS was subcloned, and the obtained high-purity PRS protein was purified and used in the experiment. The compounds (1 μM) prepared in Examples were added into the reaction buffer (20 mM KPO4 (pH 7.4), 6 mM MgAc, 5 mM ATP, […] tRNA, 0.5 mM DTT, […][^3H]proline (1 mCi/mL)) and allowed to react at 37° C. for 5 to 10 minutes. The reaction was terminated with 3M paper that was in advance dried by addition of 5% TCA. The radioactivity was measured using a liquid scintillation counter.
# % Inhibition and IC50 values of the respective compounds were calculated and analyzed using Microsoft Excel or Sigma Plot 8.0. In Tables 1 to 3, the results are divided into A, B and C according to the range of IC50. The case where the derived IC50 is 100 nM or less is represented by “A”, the case where the IC50 is 100 to 500 nM is represented by “B”, and the case where the IC50 is 500 nM or higher is represented by “C”.
# PRS (prolyl-tRNA synthetase) protein, PRS portion of EPRS, sequence (P07814 1007-1512): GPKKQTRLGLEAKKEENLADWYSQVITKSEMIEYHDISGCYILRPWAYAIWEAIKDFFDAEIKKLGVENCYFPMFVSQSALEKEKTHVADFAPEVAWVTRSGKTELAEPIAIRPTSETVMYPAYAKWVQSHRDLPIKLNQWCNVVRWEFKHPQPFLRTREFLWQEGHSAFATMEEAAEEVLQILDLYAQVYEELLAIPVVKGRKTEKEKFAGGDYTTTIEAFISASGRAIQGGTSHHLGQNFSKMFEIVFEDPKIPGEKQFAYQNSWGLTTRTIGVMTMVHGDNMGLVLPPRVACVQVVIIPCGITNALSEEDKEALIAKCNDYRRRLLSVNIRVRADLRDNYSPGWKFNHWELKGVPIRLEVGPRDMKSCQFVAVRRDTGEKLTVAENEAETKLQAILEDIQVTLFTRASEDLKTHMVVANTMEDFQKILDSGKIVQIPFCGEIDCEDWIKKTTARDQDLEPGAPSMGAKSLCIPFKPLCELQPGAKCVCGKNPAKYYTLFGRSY
row,SMILES,IC50
1,"CC(C)Cn1c(=O)n(C)c(=O)c2c1ncn2CCC[C@H]1NCCC[C@@H]1O [Example 165, 7-(3-((2R,3S)-3-hydroxypiperidin-2-yl)propyl)-3-isobutyl-1-methyl-1H-purine-2,6(3H,7H)-dione]",≥ 500 nM
2,"O[C@H]1CCCN[C@@H]1CCCn1cnc2cccc(-c3cccc(F)c3)c21 [Example 27, (2R,3S)-2-(3-(7-(3-fluorophenyl)-1H-benzo[d]imidazol-1-yl)propyl)piperidin-3-ol]",100 to 500 nM
3,"CCOC(=O)c1cc(-c2cc(Cl)cc3ncn(CCC[C@H]4NCCC[C@@H]4O)c23)cn1C [Example 116, ethyl 4-(5-chloro-1-(3-((2R,3S)-3-hydroxypiperidin-2-yl)propyl)-1H-benzo[d]imidazol-7-yl)-1-methyl-1H-pyrrole-2-carboxylate]",≤ 100 nM
4,"O[C@H]1CCCN[C@@H]1CCCn1cnc2c(Cl)cccc21 [Example 10, (2R,3S)-2-(3-(4-chloro-1H-benzo[d]imidazol-1-yl)propyl)piperidin-3-ol]",100 to 500 nM
5,"O=C(O)c1cn(C/C=C/[C@H]2NCCC[C@@H]2O)c2ccccc12 [Example 209, 1-((E)-3-((2R,3S)-3-hydroxypiperidin-2-yl)allyl)-1H-indole-3-carboxylic acid]",≥ 500 nM
6,"C/C(=C\[C@H]1NCCC[C@@H]1O)Cn1c(CO)nc2cc(Cl)c(Cl)cc21 [Example 224, (2R,3S)-2-((E)-3-(5,6-dichloro-2-(hydroxymethyl)-1H-benzo[d]imidazol-1-yl)-2-methylprop-1-en-1-yl)piperidin-3-ol]",≥ 500 nM
7,"O[C@H]1CCCN[C@@H]1CCCn1cnc2cc(C(F)(F)F)cc(-c3cccc(F)c3)c21 [Example 84, (2R,3S)-2-(3-(7-(3-fluorophenyl)-5-(trifluoromethyl)-1H-benzo[d]imidazol-1-yl)propyl)piperidin-3-ol]",≥ 500 nM
8,"O[C@H]1CCCN[C@@H]1CCCn1cnc2cc(Cl)cc(Cl)c21 [Example 80, (2R,3S)-2-(3-(5,7-dichloro-1H-benzo[d]imidazol-1-yl)propyl)piperidin-3-ol]",≤ 100 nM
9,"O[C@H]1CCCN[C@@H]1CCCn1cnc2cc(-c3cccc(F)c3)ccc21 [Example 22, (2R,3S)-2-(3-(5-(3-fluorophenyl)-1H-benzo[d]imidazol-1-yl)propyl)piperidin-3-ol]",≥ 500 nM
10,"O[C@H]1CCCN[C@@H]1CCCn1cnc2cc(Cl)c(Br)cc21 [Example 36, (2R,3S)-2-(3-(6-bromo-5-chloro-1H-benzo[d]imidazol-1-yl)propyl)piperidin-3-ol]",100 to 500 nM
11,"O[C@H]1CCCN[C@@H]1CCCn1cnc2cc(Br)cc(Cl)c21 [Example 70, (2R,3S)-2-(3-(5-bromo-7-chloro-1H-benzo[d]imidazol-1-yl)propyl)piperidin-3-ol]",≤ 100 nM
12,"Cc1ccc2c(ncn2C/C=C/[C@H]2NCCC[C@@H]2O)c1Cl [Example 175, (2R,3S)-2-((E)-3-(4-chloro-5-methyl-1H-benzo[d]imidazol-1-yl)prop-1-en-1-yl)piperidin-3-ol]",100 to 500 nM
13,"COC(=O)c1cn(C/C=C/[C@H]2NCCC[C@@H]2O)c2c(Br)cccc12 [Example 202, methyl 7-bromo-1-((E)-3-((2R,3S)-3-hydroxypiperidin-2-yl)allyl)-1H-indole-3-carboxylate]",100 to 500 nM
14,"O[C@H]1CCCN[C@@H]1CCCn1cnc2cc(Cl)cc(Br)c21 [Example 69, (2R,3S)-2-(3-(7-bromo-5-chloro-1H-benzo[d]imidazol-1-yl)propyl)piperidin-3-ol]",≤ 100 nM
15,"CN(C)c1ncnc2c1ncn2CCC[C@H]1NCCC[C@@H]1O [Example 137, (2R,3S)-2-(3-(6-(dimethylamino)-9H-purin-9-yl)propyl)piperidin-3-ol]",≥ 500 nM
16,"O=[N+]([O-])c1c(Br)ccc2c1ncn2CCC[C@H]1NCCC[C@@H]1O [Example 75, (2R,3S)-2-(3-(5-bromo-4-nitro-1H-benzo[d]imidazol-1-yl)propyl)piperidin-3-ol]",≥ 500 nM
17,"O[C@H]1CCCN[C@@H]1CCCn1cnc2cc(Cl)c(F)cc21 [Example 34, (2R,3S)-2-(3-(5-chloro-6-fluoro-1H-benzo[d]imidazol-1-yl)propyl)piperidin-3-ol]",100 to 500 nM
18,"O[C@H]1CCCN[C@@H]1CCCn1cnc2cnc(Cl)nc21 [Example 136, (2R,3S)-2-(3-(2-chloro-9H-purin-9-yl)propyl)piperidin-3-ol]",≥ 500 nM
19,"Oc1nc2ccccc2n1CCC[C@H]1NCCC[C@@H]1O [Example 143, 1-(3-((2R,3S)-3-hydroxypiperidin-2-yl)propyl)-1H-benzo[d]imidazol-2-ol]",≥ 500 nM
20,"O=C(O)c1cn(C/C=C/[C@H]2NCCC[C@@H]2O)c2cccc(Cl)c12 [Example 205, 4-chloro-1-((E)-3-((2R,3S)-3-hydroxypiperidin-2-yl)allyl)-1H-indole-3-carboxylic acid]",≥ 500 nM

row,SMILES,IC50
1,"O[C@H]1CCCN[C@@H]1CCCn1cnc2cnc(Br)cc21 [Example 124, (2R,3S)-2-(3-(6-bromo-1H-imidazo[4,5-c]pyridin-1-yl)propyl)piperidin-3-ol]",≥ 500 nM
2,"O[C@H]1CCCN[C@@H]1CCCn1cnc2ncc(Br)cc21 [Example 120, (2R,3S)-2-(3-(6-bromo-1H-imidazo[4,5-b]pyridin-1-yl)propyl)piperidin-3-ol]",≥ 500 nM
3,"O[C@H]1CCCN[C@@H]1CCCn1cnc2ccc(-c3ccc(F)cc3)cc21 [Example 25, (2R,3S)-2-(3-(6-(4-fluorophenyl)-1H-benzo[d]imidazol-1-yl)propyl)piperidin-3-ol]",≥ 500 nM
4,"Cc1ccc2c(ncn2CCC[C@H]2NCCC[C@@H]2O)c1C [Example 51, (2R,3S)-2-(3-(4,5-dimethyl-1H-benzo[d]imidazol-1-yl)propyl)piperidin-3-ol]",≥ 500 nM
5,"O[C@H]1CCCN[C@@H]1CCCn1cnc2c(F)cc(Br)cc21 [Example 72, (2R,3S)-2-(3-(6-bromo-4-fluoro-1H-benzo[d]imidazol-1-yl)propyl)piperidin-3-ol]",100 to 500 nM
6,"O[C@H]1CCCN[C@@H]1CCCn1cnc2cccc(C(F)(F)F)c21 [Example 16, (2R,3S)-2-(3-(7-(trifluoromethyl)-1H-benzo[d]imidazol-1-yl)propyl)piperidin-3-ol]",100 to 500 nM
7,"O[C@H]1CCCN[C@@H]1CCCn1cnc2cc(Cl)cc(-c3cnc(C4CC4)s3)c21 [Example 100, (2R,3S)-2-(3-(5-chloro-7-(2-cyclopropylthiazol-5-yl)-1H-benzo[d]imidazol-1-yl)propyl)piperidin-3-ol]",100 to 500 nM
8,"O[C@H]1CCCN[C@@H]1CCCn1cnc2cc(Cl)cc(F)c21 [Example 79, (2R,3S)-2-(3-(5-chloro-7-fluoro-1H-benzo[d]imidazol-1-yl)propyl)piperidin-3-ol]",≤ 100 nM
9,"O[C@H]1CCCN[C@@H]1/C=C/CN1CCc2cc(Cl)ccc21 [Example 195, (2R,3S)-2-((E)-3-(5-chloroindolin-1-yl)prop-1-en-1-yl)piperidin-3-ol]",≥ 500 nM
10,"O[C@H]1CCCN[C@@H]1CCCn1cnc2c(F)ccc(Cl)c21 [Example 74, (2R,3S)-2-(3-(7-chloro-4-fluoro-1H-benzo[d]imidazol-1-yl)propyl)piperidin-3-ol]",100 to 500 nM
11,"COC(=O)c1cc(-c2cc(Cl)cc3ncn(CCC[C@H]4NCCC[C@@H]4O)c23)cs1 [Example 111, methyl 4-(5-chloro-1-(3-((2R,3S)-3-hydroxypiperidin-2-yl)propyl)-1H-benzo[d]imidazol-7-yl)thiophene-2-carboxylate]",≤ 100 nM
12,"O[C@H]1CCCN[C@@H]1CCCn1cnc2cncc(Br)c21 [Example 128, (2R,3S)-2-(3-(7-bromo-1H-imidazo[4,5-c]pyridin-1-yl)propyl)piperidin-3-ol]",≥ 500 nM
13,"O[C@H]1CCCN[C@@H]1/C=C/Cn1cnc2c(Cl)c(Cl)ccc21 [Example 174, (2R,3S)-2-((E)-3-(4,5-dichloro-1H-benzo[d]imidazol-1-yl)prop-1-en-1-yl)piperidin-3-ol]",≤ 100 nM
14,"O=[N+]([O-])c1ccc2c(ncn2CCC[C@H]2NCCC[C@@H]2O)c1Cl [Example 77, (2R,3S)-2-(3-(4-chloro-5-nitro-1H-benzo[d]imidazol-1-yl)propyl)piperidin-3-ol]",100 to 500 nM
15,"O[C@H]1CCCN[C@@H]1/C=C/Cn1cnc2nc(Br)ccc21 [Example 184, (2R,3S)-2-((E)-3-(5-bromo-1H-imidazo[4,5-b]pyridin-1-yl)prop-1-en-1-yl)piperidin-3-ol]",≥ 500 nM
16,"O[C@H]1CCCN[C@@H]1CCCn1cnc2ccc(Cl)cc21 [Example 1, (2R,3S)-2-(3-(6-chloro-1H-benzo[d]imidazol-1-yl)propyl)piperidin-3-ol]",100 to 500 nM
17,"O[C@H]1CCCN[C@@H]1CCCn1cnc2c(Cl)c(Br)cnc21 [Example 133, (2R,3S)-2-(3-(6-bromo-7-chloro-3H-imidazo[4,5-b]pyridin-3-yl)propyl)piperidin-3-ol]",≥ 500 nM
18,"COC(=O)c1cn(C/C=C/[C@H]2NCCC[C@@H]2O)c2cc(Br)ccc12 [Example 214, methyl 6-bromo-1-((E)-3-((2R,3S)-3-hydroxypiperidin-2-yl)allyl)-1H-indole-3-carboxylate]",100 to 500 nM
19,"Cc1ncc(-c2cc(Cl)cc3ncn(CCC[C@H]4NCCC[C@@H]4O)c23)s1 [Example 85, (2R,3S)-2-(3-(5-chloro-7-(2-methylthiazol-5-yl)-1H-benzo[d]imidazol-1-yl)propyl)piperidin-3-ol]",100 to 500 nM
